Experimental data taken from PubChem BioAssay AID1963866 (Molecular Pharmacology Branch, DTP, NCI, 2024).

Test system: PDC KRAS tumor spheroids with HUVEC/MSC, viability
Experiment: Anticancer human tumor 349418-098-R-PDC patient-derived lung adenocarcinoma cell line growth inhibition [KRAS2]
Details: for IC50: curve of first compound; for viability, T/C: stronger effect = lower value
How it was run: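 Combination screen of spheroid viability in tumor-cell co-cultures with endothelial (HUVEC) and mesenchymal stem cell stroma. Each agent was tested in half-log dilutions, topping at clinical Cmax or at 10 microM without a known Cmax.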

[1] = second compound 0.0316 µM, first compound 0.0316 µM
[2] = second compound 0.0316 µM, first compound 0.1 µM
[3] = second compound 0.0316 µM, first compound 0.316 µM
[4] = second compound 0.0316 µM, first compound 1 µM
[5] = second compound 0.0316 µM, first compound 3.16 µM
[6] = second compound 0.0316 µM, first compound 10 µM
[7] = second compound 0.1 µM, first compound 0.0316 µM
[8] = second compound 0.1 µM, first compound 0.1 µM
[9] = second compound 0.1 µM, first compound 0.316 µM
[10] = second compound 0.1 µM, first compound 1 µM
[11] = second compound 0.1 µM, first compound 3.16 µM
[12] = second compound 0.1 µM, first compound 10 µM
[13] = second compound 0.316 µM, first compound 0.0316 µM
[14] = second compound 0.316 µM, first compound 0.1 µM
[15] = second compound 0.316 µM, first compound 0.316 µM
[16] = second compound 0.316 µM, first compound 1 µM
[17] = second compound 0.316 µM, first compound 3.16 µM
[18] = second compound 0.316 µM, first compound 10 µM
[19] = second compound 1 µM, first compound 0.0316 µM
[20] = second compound 1 µM, first compound 0.1 µM
[21] = second compound 1 µM, first compound 0.316 µM
[22] = second compound 1 µM, first compound 1 µM
[23] = second compound 1 µM, first compound 3.16 µM
[24] = second compound 1 µM, first compound 10 µM
[25] = second compound 3.16 µM, first compound 0.0316 µM
[26] = second compound 3.16 µM, first compound 0.1 µM
[27] = second compound 3.16 µM, first compound 0.316 µM
[28] = second compound 3.16 µM, first compound 1 µM
[29] = second compound 3.16 µM, first compound 3.16 µM
[30] = second compound 3.16 µM, first compound 10 µM
[31] = second compound 0.0316 µM, first compound 0.01 µM
[32] = second compound 0.1 µM, first compound 0.01 µM
[33] = second compound 0.316 µM, first compound 0.01 µM
[34] = second compound 1 µM, first compound 0.01 µM
[35] = second compound 3.16 µM, first compound 0.01 µM
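Note: spheroids exposed to compounds for seven days before readout.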

Row | Structure (SMILES) | IC50 (second compound 0.0316 µM) | IC50 (second compound 0.1 µM) | IC50 (second compound 0.316 µM) | IC50 (second compound 1 µM) | IC50 (second compound 3.16 µM) | viability, T/C [1] | viability, T/C [2] | viability, T/C [3] | viability, T/C [4] | viability, T/C [7] | viability, T/C [8] | viability, T/C [9] | viability, T/C [10] | viability, T/C [13] | viability, T/C [14] | viability, T/C [15] | viability, T/C [16] | viability, T/C [19] | viability, T/C [20] | viability, T/C [21] | also measured
1 | CC(C)NCC(C(=O)N1CCN(c2ncnc3c2C(C)CC3O)CC1)c1ccc(Cl)cc1 (stereo not given) + C=CC(=O)N1CCN(c2nc(OCC3CCCN3C)nc3c2CCN(c2cccc4cccc(C)c24)C3)CC1CC#N | 313 nM | 254 nM | 289 nM | 224 nM | < 31.6 nM | 95.7% | 69.4% | 52.3% | 30.7% | 90.8% | 76.8% | 42.5% | 20.9% | 87.7% | 77.9% | 44.7% | 24.6% | 79.9% | 66.1% | 43.7% | viability, T/C [5]: 16.9%; viability, T/C [6]: 6.91%; viability, T/C [11]: 15.2%; viability, T/C [12]: 7.07%; viability, T/C [17]: 15.7%; viability, T/C [18]: 5.1%; viability, T/C [22]: 19%; viability, T/C [23]: 8.97%; viability, T/C [24]: 4.67%; viability, T/C [25]: 0.14%; viability, T/C [26]: 0.14%; viability, T/C [27]: 0.1%; viability, T/C [28]: 0.23%; viability, T/C [29]: 0.21%; viability, T/C [30]: 0.13%
2 | CC1COCCN1c1cc(-c2ccnn2C)c2ccnc(-c3ccn[nH]3)c2n1 (stereo not given) + C=CC(=O)N1CCN(c2nc(OCC3CCCN3C)nc3c2CCN(c2cccc4cccc(C)c24)C3)CC1CC#N | 29.8 nM | 31.1 nM | 23.8 nM | < 10 nM | < 10 nM | 47.6% | 9.45% | 5.83% | 4.78% | 49.1% | 9.48% | 5.64% | 4.53% | 33% | 5.66% | 4.96% | 4.7% | 4.15% | 3.41% | 4.26% | viability, T/C [31]: 94.1%; viability, T/C [5]: 4.54%; viability, T/C [32]: 112%; viability, T/C [11]: 3.65%; viability, T/C [33]: 102%; viability, T/C [17]: 4.39%; viability, T/C [34]: 43.6%; viability, T/C [22]: 3.79%; viability, T/C [23]: 3.79%; viability, T/C [35]: 0.1%; viability, T/C [25]: 0.21%; viability, T/C [26]: 0.07%; viability, T/C [27]: 0.06%; viability, T/C [28]: 0.07%; viability, T/C [29]: 0.12%
3 | CC1OCC2(CCN(c3cnc(Sc4ccnc(N)c4Cl)c(N)n3)CC2)C1N (stereo not given) + C=CC(=O)N1CCN(c2nc(OCC3CCCN3C)nc3c2CCN(c2cccc4cccc(C)c24)C3)CC1CC#N | > 10000 nM | > 10000 nM | > 10000 nM | 6510 nM | < 31.6 nM | 122% | 95.1% | 92.8% | 96.8% | 108% | 93.6% | 79.8% | 89.4% | 99% | 112% | 97.8% | 98.5% | 71% | 69.4% | 62.9% | viability, T/C [5]: 94.1%; viability, T/C [6]: 68.7%; viability, T/C [11]: 78%; viability, T/C [12]: 83.6%; viability, T/C [17]: 96.8%; viability, T/C [18]: 95.1%; viability, T/C [22]: 58.3%; viability, T/C [23]: 50.2%; viability, T/C [24]: 49.5%; viability, T/C [25]: 0.15%; viability, T/C [26]: 0.15%; viability, T/C [27]: 0.13%; viability, T/C [28]: 0.14%; viability, T/C [29]: 0.14%; viability, T/C [30]: 0.26%
4 | CCN1CCN(Cc2ccc(Nc3ncc(F)c(-c4cc(F)c5nc(C)n(C(C)C)c5c4)n3)nc2)CC1 + C=CC(=O)N1CCN(c2nc(OCC3CCCN3C)nc3c2CCN(c2cccc4cccc(C)c24)C3)CC1CC#N | 4.51 nM | 6.76 nM | 6 nM | < 3.16 nM | < 3.16 nM | 19.3% | 16.6% | 14.1% | 4.49% | 20.2% | 15.4% | 10.2% | 3.97% | 15.8% | 19.1% | 10.4% | 2.4% | 15.2% | 12.4% | 8.99% | viability, T/C (second compound 0.0316 µM, first compound 0.00316 µM): 56%; viability, T/C [31]: 37.7%; viability, T/C (second compound 0.1 µM, first compound 0.00316 µM): 80.7%; viability, T/C [32]: 31.3%; viability, T/C (second compound 0.316 µM, first compound 0.00316 µM): 64.8%; viability, T/C [33]: 40.2%; viability, T/C (second compound 1 µM, first compound 0.00316 µM): 46.1%; viability, T/C [34]: 24.9%; viability, T/C [22]: 0.45%; viability, T/C (second compound 3.16 µM, first compound 0.00316 µM): 0.15%; viability, T/C [35]: 0.09%; viability, T/C [25]: 0.07%; viability, T/C [26]: 0.08%; viability, T/C [27]: 0.08%; viability, T/C [28]: 0.19%
5 | CCNC(=O)CC1N=C(c2ccc(Cl)cc2)c2cc(OC)ccc2-n2c(C)nnc21 (stereo not given) + C=CC(=O)N1CCN(c2nc(OCC3CCCN3C)nc3c2CCN(c2cccc4cccc(C)c24)C3)CC1CC#N | 122 nM | 95.7 nM | 186 nM | 47.7 nM | < 31.6 nM | 102% | 50.9% | 34.2% | 8.72% | 93.1% | 48.1% | 21.8% | 9.94% | 101% | 70.5% | 30.6% | 16.6% | 62.9% | 26.6% | 10.7% | viability, T/C [5]: 1.74%; viability, T/C [6]: 0.85%; viability, T/C [11]: 1.6%; viability, T/C [12]: 0.66%; viability, T/C [17]: 4.31%; viability, T/C [18]: 1.58%; viability, T/C [22]: 4.52%; viability, T/C [23]: 0.59%; viability, T/C [24]: 2.47%; viability, T/C [25]: 0.12%; viability, T/C [26]: 0.1%; viability, T/C [27]: 0.09%; viability, T/C [28]: 0.08%; viability, T/C [29]: 0.08%; viability, T/C [30]: 0.13%
6 | Cn1nccc1Nc1nccc(-c2cc3c(s2)C(C)(C)N(CCN2CCOCC2)C3=O)n1 + C=CC(=O)N1CCN(c2nc(OCC3CCCN3C)nc3c2CCN(c2cccc4cccc(C)c24)C3)CC1CC#N | 44.7 nM | 59.7 nM | 49.3 nM | < 31.6 nM | < 31.6 nM | 57.1% | 33.1% | 20.7% | 8.51% | 70.2% | 31.8% | 21.5% | 8.37% | 62.2% | 31% | 14.8% | 9.55% | 41.5% | 32.5% | 13.6% | viability, T/C [5]: 7.52%; viability, T/C [6]: 5.99%; viability, T/C [11]: 7.54%; viability, T/C [12]: 5.51%; viability, T/C [17]: 7.33%; viability, T/C [18]: 4.36%; viability, T/C [22]: 7.03%; viability, T/C [23]: 4.51%; viability, T/C [24]: 3.02%; viability, T/C [25]: 0.13%; viability, T/C [26]: 0.09%; viability, T/C [27]: 0.07%; viability, T/C [28]: 0.07%; viability, T/C [29]: 0.07%; viability, T/C [30]: 0.17%
